According to US12139481B2, “Compositions comprising macrocycle derivatives incorporating bridged macrocycles and methods of producing and using same” (Southwestern Oklahoma State University, priority 2015, dated 2024):
Where two headings read alike, the source gives them in different places.

Key:
C. krusei ATCC 6258 = test: Antifungal broth dilution assay against C. krusei (modified CLSI); assay type: cell-based, Candida krusei; settings: for X more potent than Amphotericin B: C. krusei, ratio of molar IC50 to amphotericin B; for C. krusei IC50 / IC50: in vitro
Method: General Experimental Procedures. All organisms were obtained from the American Type Culture Collection (Manassas, VA) and include the fungi Candida albicans ATCC 90028, C. glabrata ATCC 90030, C. krusei ATCC 6258, and Cryptococcus neoformans ATCC 90113, and the bacteria Staphylococcus aureus ATCC 29213 and methicillin-resistant S. aureus ATCC 33591 (MRS). All organisms were tested using modified versions of the CLSI (formerly NCCLS) methods. For all organisms, optical density was used to monitor growth (NCCLS, Reference Method for Broth Dilution Antifungal Susceptibility Testing of Yeasts; Approved Standard M27-A2. National Committee on Clinical Laboratory Standards, 2002 22 (15); and NCCLS, Methods for Dilution Antimicrobial Susceptibility Tests for Bacteria that Grow Aerobically; Approved Standard, Seventh Edition M7-A7. National Committee on Clinical Laboratory Standards, 2006. 26(2)).
Samples (dissolved in DMSO) were serially-diluted in 20% DMSO/saline and transferred (10 μL) in duplicate to 96 well flat bottom microplates. Inocula were prepared by correcting the OD630 of microbe suspensions in incubation broth [RPMI 1640/0.2% dextrose/0.03% glutamine/MOPS @ pH 6.0 (Cellgro) for Candida spp., Sabouraud Dextrose for C. neoformans, and cation-adjusted Mueller-Hinton (Difco) @ pH 7.3 for Staphylococcus spp. to afford an assay volume of […] and final target inocula of: Candida spp. and C. neoformans: 1.5×10^3, and Staphylococcus spp.: 5.0×10^5 CFU/ml. Final sample test concentrations were 1/100th the DMSO stock concentration. […] All organisms were read at either 530 nm using the Biotek Powerwave XS plate reader (Bio-Tek Instruments, Vermont) prior to and after incubation: Candida spp. at 35° C. for 46-50 h, Staphylococcus spp. at 35° C. for 16-20 h, and C. neoformans at 35° C. for 70-74 h. IC50s (concentrations that afford 50% inhibition relative to controls) were calculated using XLfit 4.2 software (IDBS, Alameda, CA) using fit model 201. The MIC is defined as the lowest test concentration that allows no detectable growth. Minimum fungicidal or bactericidal concentrations were determined by removing 5 μl from each clear (or blue) well, transferring to fresh media, and incubating as previously mentioned. The MFC/MBC is defined as the lowest test concentration that kills the organism (allows no growth).
Primary Analysis. Samples were tested in duplicate at one test concentration (50 μg/mL), and percent inhibitions were calculated relative to blank and growth controls. Samples showing 50% inhibition in at least one test organism were selected for dose response (Secondary) studies.
Secondary Analysis. Extracts from the Primary Assay, and first-run pure compounds and column fractions were tested in duplicate at 3 test concentrations (5-fold dilutions). Samples dissolved to 20 mg/mL in DMSO were tested at 200, 40, and 8 μg/mL. Samples dissolved to 2 mg/mL in DMSO were tested at 20, 4, and 0.8 μg/mL.

[1] = tested on: Cryptococcus neoformans ATCC 90113; test: Antimicrobial microdilution assay against Cryptococcus neoformans (modified CLSI/NCCLS, optical density); assay type: cell-based; settings: for X more potent than Amphotericin B: C. neoformans, ratio of molar IC50 to Amphotericin B
Summary of the method: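 Fungicidal endpoint taken by subculturing 5 μL from each clear well onto agar, MFC being the lowest concentration with no regrowth. Duplicate wells of serially diluted compound (20% DMSO/saline) in RPMI pH 6.0, read at 630 nm pre- and post-incubation, under modified CLSI methods. IC50 means 50% growth inhibition against controls.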

C. glabrata ATCC 90030 = test: Antifungal broth dilution assay against C. glabrata (modified CLSI); assay type: cell-based, Candida glabrata; settings: for X more potent than Amphotericin B: molar IC50 ratio versus amphotericin B
Summary of the method: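 Growth read by optical density at 530 nm, duplicate wells, 1% final DMSO. Staphylococcus spp.: Mueller-Hinton pH 7.3, 5.0×10^5 CFU/ml, 35 °C for 16-20 h; Candida spp.: RPMI/dextrose/glutamine/MOPS pH 6.0, 1.5×10^3 CFU/ml, 35 °C for 46-50 h. Reported values are 50% inhibition versus controls, no-growth MIC, and killing MFC/MBC.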

[2] = tested on: L. donovani promastigotes; test: Antileishmanial Alamar Blue assay on promastigotes; assay type: cell-based, Leishmania donovani; settings: for X more potent than Pentamidine: L. donovani, ratio of molar IC50 to Pentamidine
Summary of the method: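 Alamar Blue fluorescence (544/590 nm) quantified growth after 48 hours at 26° C of compound-treated promastigotes. Parasites were seeded at 5×10^5/mL in RPMI 1640 plus 10% FCS; drug range 50-3.1 μg/mL, and IC50 derived by plotting percent growth against test concentration.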

[3] = read-out: C. krusei IC50 (mol/L)
[4] = in vitro, C. neoformans ATCC 90113
[5] = in vitro, converted with molecular weight
[6] = in vitro, C. neoformans ATCC 90113, read-out: C. neoformans IC50 (mol/L)
[7] = promastigotes, 48 hours, Alamar Blue
[8] = promastigotes, 48 hours, Alamar Blue, read-out: L. donavani IC50

Molecule | X more potent than Amphotericin B (C. krusei ATCC 6258) | C. krusei IC50 (C. krusei ATCC 6258) [µg/mL] | IC50 (C. krusei ATCC 6258; [3]) [µM] | X more potent than Amphotericin B [1] | C. neoformans IC50 [1, 4] [µg/mL] | C. glabrata IC50 (C. glabrata ATCC 90030; in vitro) [µg/mL] | IC50 (C. glabrata ATCC 90030; [5]) [nM] | X more potent than Amphotericin B (C. glabrata ATCC 90030) | IC50 [1, 6] [nM] | X more potent than Pentamidine [2] | L. donovani IC50 [2, 7] [µg/mL] | IC50 [2, 8] [µM] | further results
C[C@@H]1[C@H](O)[C@@H](C)/C=C/C=C/C=C/C=C/C=C/C=C/C=C/[C@H](O[C@@H]2O[C@H](C)[C@@H](O)[C@H](N)[C@@H]2O)C[C@@H]2O[C@](O)(C[C@@H](O)C[C@@H](O)[C@H](O)CC[C@@H](O)C[C@@H](O)CC(=O)O[C@H]1C)C[C@H](O)[C@H]2C(=O)O [AMB, Amphotericin B, reference compound] | 1.00 | 1.380 | 1.49 | 1.00 | 0.220 | 1.310 | 1420 | 1.00 |  |  |  |  | IC50 ([1]; read-out: IC50 against C. neoformans): 238 nM
O=[N+]([O-])c1ccc(CC2CNCCN(Cc3ccc(CN4CCCN5CCN(CCCNCC4)CC5)cc3)CCCN3CCN(CC3)C2)cc1 (stereo not drawn) [SJA233, Bis-SB-C-Ar-NO2] | 0.25 | 4.070 | 5.9 | 0.30 | 0.550 |  |  |  | 797 | 0.12 | 30.32 | 43.9 | 
c1c(CN2CCNCCN3CCN(CC3)CC2)cc(CN2CCNCCN3CCN(CC3)CC2)cc1CN1CCNCCN2CCN(CC2)CC1 [CDG29, tris-SB-cyclens] | 0.23 | 4.660 | 6.57 | 1.69 | 0.100 |  |  |  | 141 | 0.32 | 11.69 | 16.5 | 
c1cc(CN2CCNCCCN3CCN(CC3)CC2)ccc1CN1CCNCCCN2CCN(CC2)CC1 [OB45, p-SB-Homocyclens] | 0.98 | 0.800 | 1.52 | 0.16 | ≤ 0.800 |  |  |  | 1520 | 0.16 | 17.44 | 33.1 | 
[Br-].[Br-].c1cc(C[N+]23CCCN(CCN4CCCN(CC2)C4)C3)ccc1C[N+]12CCCN(CCN3CCCN(CC1)C3)C2 [SLK17A, [p-(BMBCyclams)]Br2] | 1.21 | 0.880 | 1.24 | 0.02 | 8.250 | 1.317 | 1850 | 0.77 | 11600 | 0.23 | 16.69 | 23.4 | 
O=[N+]([O-])[O-].O=[N+]([O-])[O-].O=[N+]([O-])[O-].O=[N+]([O-])[O-].O=[N+]([O-])c1ccc(CC2CNCCN(Cc3ccc(CN4CCCN5CCN(CCCNCC4)CC5)cc3)CCCN3CCN(CC3)C2)cc1.[Ni+2].[Ni+2] (stereo not drawn) [SJA236, [Ni2(bis-SB-C-Ar-NO2)(NO3)4]] | 0.26 | 6.030 | 5.71 | 0.34 | 0.740 | 5.750 | 5450 | 0.26 | 701 | 0.23 | 24.85 | 23.6 | 
[Zn3(tris-CB-Cyclams)(OAc)3][PF6]3•2.4NH4PF6 [BNS26] | 2.49 | 1.220 | 0.6 | 0.07 | 6.840 | 2.140 | 1050 | 1.35 | 3360 |  |  |  | 
Cl.Cl.Cl.Cl.Cl.Cl.Cl.Cl.c1cc(CN2CCNCCCN3CCN(CC3)CC2)cc(CN2CCNCCCN3CCN(CC3)CC2)c1 [OB46B, m-SB-homocyclens HCl salt] | 0.16 | 7.420 | 9.06 | 0.75 | 0.280 |  |  |  |  | 0.13 | 34.26 | 41.9 | IC50 ([1]; in vitro, C. neoformans ATCC 90113, HCl salt, read-out: C. neoformans IC50 (mol/L)): 318 nM
CC(=O)[O-].F[P-](F)(F)(F)(F)F.[Zn+2].c1ccc(CN2CCN3CCCN(CC2)CCN(Cc2ccccc2)CC3)cc1 [AW041, [Zn(Bn2PBCyclen)(C2H3O2)]PF6] | 0.19 | 5.170 |  | 0.02 | 7.330 |  |  |  |  | 0.15 | 22.92 |  | 
c1c(CN2CCCN3CCN(CCCNCC2)CC3)cc(CN2CCCN3CCN(CCCNCC2)CC3)cc1CN1CCCN2CCN(CCCNCC1)CC2 [CDG19, tris-SB-cyclams] | 0.25 |  |  | 1.05 |  |  |  | 0.11 |  | 0.27 |  |  | IC50 (C. krusei ATCC 6258; Pichia kudriavzevii, ATCC6258, read-out: C. krusei IC50 (mol/L)): 6.04 µM; IC50 (C. krusei ATCC 6258; Pichia kudriavzevii, ATCC6258, read-out: C. krusei IC50 (μg/mL)): 4.79 µg/mL; IC50 ([1]; Cryptococcus neoformans, ATCC90113, in vitro, C. neoformans ATCC 90113, read-out: C. neoformans IC50 (mol/L)): 227 nM; IC50 ([1]; Cryptococcus neoformans, ATCC90113, in vitro, C. neoformans ATCC 90113, read-out: C. neoformans IC50 (μg/mL)): 0.18 µg/mL; IC50 (C. glabrata ATCC 90030; Nakaseomyces glabratus, ATCC90030, in vitro): 9.8 µg/mL; IC50 (C. glabrata ATCC 90030; Nakaseomyces glabratus, ATCC90030, in vitro, converted with molecular weight): 12400 nM; IC50 ([2]; Leishmania donovani, 48 h, read-out: L. donavani IC50 (mol/L)): 20.1 µM; IC50 ([2]; Leishmania donovani, promastigotes, 48 hours, Alamar Blue, read-out: L. donovani IC50): 15.9 µg/mL
CC(=O)[O-].F[P-](F)(F)(F)(F)F.F[P-](F)(F)(F)(F)F.F[P-](F)(F)(F)(F)F.[Mn+2].[NH4+].[NH4+].c1ccc(CN2CCN3CCCN(CC2)CCN(Cc2ccccc2)CC3)cc1 [AW036, [Mn(Bn2PBCyclen)(C2H3O2)]PF6•2NH4PF6] | 0.29 | 4.990 | 5.11 | 0.03 | 7.070 |  |  |  | 7230 | 0.20 | 25.41 | 26 | 
O=[N+]([O-])c1ccc(CC2CNCCN(Cc3ccc(CN4CCCN5CCN(CCCNCC4)CC5)cc3)CCCN3CCN(CC3)C2)cc1.[Cu+2].[Cu+2].[O-][Cl+3]([O-])([O-])[O-].[O-][Cl+3]([O-])([O-])[O-].[O-][Cl+3]([O-])([O-])[O-].[O-][Cl+3]([O-])([O-])[O-] (stereo not drawn) [SJA234, [Cu2(bis-SB-C-Ar-NO2)(ClO4)4]] | 0.40 | 4.550 | 3.75 | 0.15 | 1.910 |  |  |  | 1570 | 0.21 | 30.31 | 24.9 | 
